# Measured values from ChEMBL document CHEMBL1201862, “PubChem BioAssay data set” (2004).
# The source made the active and inactive calls.
# How the values were obtained:
# Beta-lactamase [1] = biological target: Beta-lactamase (Salmonella choleraesuis (strain SC-B67), UniProt Q5J463)
# Insulin-degrading enzyme [2] = biological target: T1, Insulin-degrading enzyme (Homo sapiens, UniProt P14735); test: activators of endogenous IDE in HEK cells, dose response, cell-based, fluorescence polarization (AID 588439); assay type: functional
# T1 sequence (P14735 whole entry): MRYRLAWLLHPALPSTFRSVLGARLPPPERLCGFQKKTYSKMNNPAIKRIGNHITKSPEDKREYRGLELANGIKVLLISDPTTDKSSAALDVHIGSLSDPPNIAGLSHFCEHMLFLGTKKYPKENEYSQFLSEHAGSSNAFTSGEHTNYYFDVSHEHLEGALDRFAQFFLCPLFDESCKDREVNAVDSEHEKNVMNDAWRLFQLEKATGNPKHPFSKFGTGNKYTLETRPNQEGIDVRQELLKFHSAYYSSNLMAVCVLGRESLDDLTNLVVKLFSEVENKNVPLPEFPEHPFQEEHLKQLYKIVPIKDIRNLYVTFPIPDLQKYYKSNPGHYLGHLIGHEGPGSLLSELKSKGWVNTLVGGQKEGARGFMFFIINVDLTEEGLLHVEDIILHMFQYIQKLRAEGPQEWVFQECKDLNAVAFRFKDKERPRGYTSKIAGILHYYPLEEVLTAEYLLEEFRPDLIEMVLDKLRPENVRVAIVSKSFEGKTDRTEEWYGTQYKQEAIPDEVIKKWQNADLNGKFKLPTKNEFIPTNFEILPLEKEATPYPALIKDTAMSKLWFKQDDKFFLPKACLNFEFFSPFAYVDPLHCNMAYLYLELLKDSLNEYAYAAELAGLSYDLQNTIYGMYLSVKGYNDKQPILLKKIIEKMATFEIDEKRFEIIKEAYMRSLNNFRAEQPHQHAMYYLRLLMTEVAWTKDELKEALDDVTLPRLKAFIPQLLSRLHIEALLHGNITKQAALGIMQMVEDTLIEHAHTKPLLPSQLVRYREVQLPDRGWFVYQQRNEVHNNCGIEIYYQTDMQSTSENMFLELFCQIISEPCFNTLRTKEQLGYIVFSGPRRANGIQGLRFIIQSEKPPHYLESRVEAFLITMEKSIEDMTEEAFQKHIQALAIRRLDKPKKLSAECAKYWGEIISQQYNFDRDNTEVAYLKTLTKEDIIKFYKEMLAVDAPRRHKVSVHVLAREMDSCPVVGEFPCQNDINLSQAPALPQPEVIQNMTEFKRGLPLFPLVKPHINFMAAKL
# HEK293 [3] = test: optical interference in Abeta FP readout, dose response, artefact control for IDE activator project, biochemical, fluorescence polarization (AID 588442); assay type: functional, cell-based; settings: Homo sapiens
# HEK293 [4] = test: HEK cell cytotoxicity by LDH release, dose response, cytotoxicity control for IDE activator project, fluorescence, HEK cells (AID 588440); assay type: functional, cell-based; settings: Homo sapiens;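 also: cytotoxicity by LDH release measuring loss of membrane integrity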
# Beta-lactamase [5] = biological target: Beta-lactamase (Pseudomonas aeruginosa, UniProt Q79MP6);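 also: biochemical dose-response test of metallo-beta-lactamase enzyme inhibition, read out by epi-absorbance; purified recombinant IMP-1 metallo-beta-lactamase with nitrocefin as substrate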
# [6] = biological target: Dual specificity tyrosine-phosphorylation-regulated kinase 1A (Rattus norvegicus, UniProt Q63470); assay type: biochemical, Homo sapiens
# HeLa = test: HeLa cell cytotoxicity, dose response, cytotoxicity control, 24 h, cherry-picked samples (AID 504726); assay type: functional, cell-based; settings: Homo sapiens;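 also: potency for cytotoxicity as loss of luminescence signal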
# Insulin-degrading enzyme [7] = biological target: T1, Insulin-degrading enzyme; test: activators of recombinant IDE enzyme, dose response, counter-screen for IDE activator project, biochemical, fluorescence polarization (AID 588681)
# ORF 73 = ORF 73 (Human herpesvirus 8, UniProt O40947); test: inhibitors of C-LANA binding to LBS DNA, dose response, biochemical, fluorescence polarization, cherry-picked samples (AID 504725); set-up: species or system Human gammaherpesvirus 8;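 also: fluorescence polarization of a labeled DNA duplex reporting LANA DNA binding; potency is for inhibitors that block LANA binding to the DNA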
# [8] = biological target: T2, Short transient receptor potential channel 4 (Mus musculus, UniProt Q9QUQ5); test: mouse TRPC4 channel inhibitors, dose response, cell-based, HEK293 TRPC4/mu-opioid, Fluo-4 calcium (AID 434942); assay type: functional;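 also: potency of inhibitors blocking the TRPC4 calcium response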
# T2 sequence (Q9QUQ5 whole entry): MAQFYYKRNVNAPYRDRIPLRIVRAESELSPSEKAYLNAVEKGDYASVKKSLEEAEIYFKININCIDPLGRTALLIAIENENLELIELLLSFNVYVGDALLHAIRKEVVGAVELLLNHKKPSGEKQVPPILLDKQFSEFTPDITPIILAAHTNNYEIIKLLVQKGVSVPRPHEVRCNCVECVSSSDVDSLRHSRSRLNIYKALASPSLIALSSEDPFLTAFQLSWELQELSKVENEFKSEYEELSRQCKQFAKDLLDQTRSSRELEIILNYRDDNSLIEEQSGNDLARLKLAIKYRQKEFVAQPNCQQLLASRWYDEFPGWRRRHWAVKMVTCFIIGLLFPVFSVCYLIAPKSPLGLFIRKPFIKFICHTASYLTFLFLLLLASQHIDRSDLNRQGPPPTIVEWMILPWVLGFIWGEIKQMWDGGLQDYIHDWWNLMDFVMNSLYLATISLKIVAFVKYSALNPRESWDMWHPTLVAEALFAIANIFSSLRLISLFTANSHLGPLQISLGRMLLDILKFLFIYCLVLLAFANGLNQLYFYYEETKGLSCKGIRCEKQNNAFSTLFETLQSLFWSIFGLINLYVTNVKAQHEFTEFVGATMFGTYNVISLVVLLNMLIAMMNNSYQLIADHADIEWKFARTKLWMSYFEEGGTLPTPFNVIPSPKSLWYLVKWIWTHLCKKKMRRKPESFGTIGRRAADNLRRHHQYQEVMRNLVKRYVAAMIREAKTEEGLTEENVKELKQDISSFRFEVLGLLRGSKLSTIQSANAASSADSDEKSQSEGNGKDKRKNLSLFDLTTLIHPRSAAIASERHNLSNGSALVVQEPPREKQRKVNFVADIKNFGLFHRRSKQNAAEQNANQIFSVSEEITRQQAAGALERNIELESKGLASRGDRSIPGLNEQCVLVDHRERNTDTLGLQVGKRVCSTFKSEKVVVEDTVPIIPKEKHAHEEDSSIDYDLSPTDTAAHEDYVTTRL
# [9] = biological target: G-protein coupled receptor 35 (Homo sapiens, UniProt Q9HC97); test: GPR35 antagonists blocking zaprinast-driven arrestin recruitment, primary screen, imaging, U2OS, beta-arrestin-GFP, zaprinast agonist (AID 2058); assay type: functional;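 also: antagonist potency meaning inhibition of agonist-induced arrestin redistribution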
# [10] = biological target: T3, Corticotropin-releasing factor receptor 2/Corticotropin-releasing factor-binding protein (Homo sapiens, UniProt P24387+Q13324); test: activators of CRF receptor 2 with binding protein – uHTS hits, confirmation (AID 602473); assay type: functional; settings: read-out: EC50_Mean
# T3 sequence (Q13324 whole entry): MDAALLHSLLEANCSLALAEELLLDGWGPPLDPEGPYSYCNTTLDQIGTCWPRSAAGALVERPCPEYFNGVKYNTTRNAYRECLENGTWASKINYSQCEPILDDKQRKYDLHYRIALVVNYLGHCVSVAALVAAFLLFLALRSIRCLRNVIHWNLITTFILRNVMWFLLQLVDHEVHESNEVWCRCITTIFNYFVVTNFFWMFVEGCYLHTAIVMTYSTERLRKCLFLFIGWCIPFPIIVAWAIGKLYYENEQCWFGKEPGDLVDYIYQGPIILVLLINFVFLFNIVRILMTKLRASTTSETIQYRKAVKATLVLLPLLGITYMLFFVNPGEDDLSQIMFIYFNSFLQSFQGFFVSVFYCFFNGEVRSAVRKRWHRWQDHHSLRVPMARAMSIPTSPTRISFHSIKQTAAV
# T3 sequence (P24387 whole entry): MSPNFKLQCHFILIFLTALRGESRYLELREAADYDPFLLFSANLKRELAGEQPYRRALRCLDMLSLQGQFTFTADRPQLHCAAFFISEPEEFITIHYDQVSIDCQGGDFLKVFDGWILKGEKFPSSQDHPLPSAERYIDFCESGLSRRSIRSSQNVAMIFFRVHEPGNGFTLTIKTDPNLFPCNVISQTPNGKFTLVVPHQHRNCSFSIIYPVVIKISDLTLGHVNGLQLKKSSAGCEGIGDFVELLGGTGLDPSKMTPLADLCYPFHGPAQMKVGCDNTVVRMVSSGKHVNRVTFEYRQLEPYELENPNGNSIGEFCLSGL
# [11] = biological target: T2, Short transient receptor potential channel 4; test: mouse TRPC4 channel activators, dose response, cell-based, HEK293 TRPC4/mu-opioid, Fluo-4 calcium (AID 434937); assay type: functional
# X-box-binding protein 1 = X-box-binding protein 1 (Homo sapiens, UniProt P17861); assay type: functional, Cricetulus griseus;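 also: confirmatory dose-response counter-screen serving a CHOP assay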
# Fatty acid synthase [12] = biological target: T4, Fatty acid synthase (Homo sapiens, UniProt P49327); test: FAS thioesterase domain inhibitors, dose response, biochemical, kinetic fluorescence intensity (AID 624326); assay type: functional;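 also: rate of fluorescence rise from hydrolysis of a fluorogenic O-methyl fluorescein ester substrate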
# [13] = biological target: T5, Neuropeptides B/W receptor type 1 (Homo sapiens, UniProt P48145); test: Fluorescence-based dose response cell-based high throughput screening assay to identify antagonists of the G-protein coupled receptor 7 (GPR7). [Related pubchem assays: 1952 (Screening assay (GPR7 antagonists).), 1880 (Summary AID.)]; assay type: functional
# T5 sequence (P48145 whole entry): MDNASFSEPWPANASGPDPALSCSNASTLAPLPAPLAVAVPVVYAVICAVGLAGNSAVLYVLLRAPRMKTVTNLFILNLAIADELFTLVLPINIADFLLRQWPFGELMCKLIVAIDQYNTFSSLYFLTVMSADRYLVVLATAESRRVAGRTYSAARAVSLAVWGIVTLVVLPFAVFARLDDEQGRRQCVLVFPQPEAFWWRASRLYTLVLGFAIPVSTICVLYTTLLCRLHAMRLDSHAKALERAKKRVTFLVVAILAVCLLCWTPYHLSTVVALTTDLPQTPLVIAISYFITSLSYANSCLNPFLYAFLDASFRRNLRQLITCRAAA
# [14] = biological target: Melanin-concentrating hormone receptor 1 (Homo sapiens, UniProt Q99705); test: Fluorescence-based counterscreen for antagonists of the G-protein coupled receptor 7 (GPR7): cell-based high throughput dose response assay to identify antagonists of the melanin-concentrating hormone receptor 1 (MCHR1).; assay type: functional
# Fatty acid synthase [15] = biological target: T4, Fatty acid synthase; test: FAS thioesterase domain inhibitors, dose response, biochemical, endpoint fluorescence intensity, uHTS hits (AID 624327); assay type: functional;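 also: fluorescence from hydrolysis of an O-methyl fluorescein acyl ester substrate by the enzyme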
# [16] = biological target: Acyl-homoserine lactone acylase PvdQ (Pseudomonas aeruginosa (strain LESB58), UniProt Q9I194); test: P. aeruginosa PvdQ acylase inhibitors, dose response, biochemical, fluorescence, plate reader and imaging, cherry-picks (AID 493231)
# [17] = biological target: T6, Heat shock factor protein 1 (Mus musculus, UniProt P38532); test: HSF1 potentiators in luciferase reporter cells, confirmation, cell-based, NIH3T3, luminescence, dose retest (AID 435004); assay type: functional;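 also: stress induced by proteasome inhibitor MG132 added 30 min after compound; luciferase reporter driven by HSF1 response element in NIH3T3 cells; actives raise luminescence as potentiators of the MG132 stress response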
# T6 sequence (P38532 whole entry): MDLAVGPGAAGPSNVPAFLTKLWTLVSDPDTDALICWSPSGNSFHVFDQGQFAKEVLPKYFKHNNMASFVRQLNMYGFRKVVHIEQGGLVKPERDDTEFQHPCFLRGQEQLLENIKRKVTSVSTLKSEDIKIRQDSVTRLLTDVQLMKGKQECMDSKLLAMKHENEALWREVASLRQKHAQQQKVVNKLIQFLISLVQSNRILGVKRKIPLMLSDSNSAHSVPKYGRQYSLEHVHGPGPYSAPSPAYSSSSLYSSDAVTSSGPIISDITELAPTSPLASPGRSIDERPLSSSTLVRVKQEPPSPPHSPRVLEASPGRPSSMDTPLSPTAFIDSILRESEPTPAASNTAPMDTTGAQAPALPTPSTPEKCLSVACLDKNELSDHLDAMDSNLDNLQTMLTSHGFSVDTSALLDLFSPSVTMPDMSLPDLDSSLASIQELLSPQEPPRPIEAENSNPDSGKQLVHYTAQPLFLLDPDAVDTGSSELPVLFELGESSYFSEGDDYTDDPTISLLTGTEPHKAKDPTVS
# Vero = test: Vero E6 cell cytotoxicity, SAR follow-up, cytotoxicity control for West Nile virus antiviral project, synthesized analogs (AID 2244); assay type: functional; settings: Chlorocebus sabaeus
# Hexokinase = Hexokinase (Trypanosoma brucei, UniProt Q38C41); test: Confirmation assay for inhibitors of Trypanosoma brucei hexokinase 1-Analogue-first series. [Related pubchem assays (depositor defined):AID1430, AID1632, AID2516, AID2560, AID2579, AID2600, AID449725, AID492951]; assay type: functional
# T4 sequence (P49327 whole entry, the tested form may be a part): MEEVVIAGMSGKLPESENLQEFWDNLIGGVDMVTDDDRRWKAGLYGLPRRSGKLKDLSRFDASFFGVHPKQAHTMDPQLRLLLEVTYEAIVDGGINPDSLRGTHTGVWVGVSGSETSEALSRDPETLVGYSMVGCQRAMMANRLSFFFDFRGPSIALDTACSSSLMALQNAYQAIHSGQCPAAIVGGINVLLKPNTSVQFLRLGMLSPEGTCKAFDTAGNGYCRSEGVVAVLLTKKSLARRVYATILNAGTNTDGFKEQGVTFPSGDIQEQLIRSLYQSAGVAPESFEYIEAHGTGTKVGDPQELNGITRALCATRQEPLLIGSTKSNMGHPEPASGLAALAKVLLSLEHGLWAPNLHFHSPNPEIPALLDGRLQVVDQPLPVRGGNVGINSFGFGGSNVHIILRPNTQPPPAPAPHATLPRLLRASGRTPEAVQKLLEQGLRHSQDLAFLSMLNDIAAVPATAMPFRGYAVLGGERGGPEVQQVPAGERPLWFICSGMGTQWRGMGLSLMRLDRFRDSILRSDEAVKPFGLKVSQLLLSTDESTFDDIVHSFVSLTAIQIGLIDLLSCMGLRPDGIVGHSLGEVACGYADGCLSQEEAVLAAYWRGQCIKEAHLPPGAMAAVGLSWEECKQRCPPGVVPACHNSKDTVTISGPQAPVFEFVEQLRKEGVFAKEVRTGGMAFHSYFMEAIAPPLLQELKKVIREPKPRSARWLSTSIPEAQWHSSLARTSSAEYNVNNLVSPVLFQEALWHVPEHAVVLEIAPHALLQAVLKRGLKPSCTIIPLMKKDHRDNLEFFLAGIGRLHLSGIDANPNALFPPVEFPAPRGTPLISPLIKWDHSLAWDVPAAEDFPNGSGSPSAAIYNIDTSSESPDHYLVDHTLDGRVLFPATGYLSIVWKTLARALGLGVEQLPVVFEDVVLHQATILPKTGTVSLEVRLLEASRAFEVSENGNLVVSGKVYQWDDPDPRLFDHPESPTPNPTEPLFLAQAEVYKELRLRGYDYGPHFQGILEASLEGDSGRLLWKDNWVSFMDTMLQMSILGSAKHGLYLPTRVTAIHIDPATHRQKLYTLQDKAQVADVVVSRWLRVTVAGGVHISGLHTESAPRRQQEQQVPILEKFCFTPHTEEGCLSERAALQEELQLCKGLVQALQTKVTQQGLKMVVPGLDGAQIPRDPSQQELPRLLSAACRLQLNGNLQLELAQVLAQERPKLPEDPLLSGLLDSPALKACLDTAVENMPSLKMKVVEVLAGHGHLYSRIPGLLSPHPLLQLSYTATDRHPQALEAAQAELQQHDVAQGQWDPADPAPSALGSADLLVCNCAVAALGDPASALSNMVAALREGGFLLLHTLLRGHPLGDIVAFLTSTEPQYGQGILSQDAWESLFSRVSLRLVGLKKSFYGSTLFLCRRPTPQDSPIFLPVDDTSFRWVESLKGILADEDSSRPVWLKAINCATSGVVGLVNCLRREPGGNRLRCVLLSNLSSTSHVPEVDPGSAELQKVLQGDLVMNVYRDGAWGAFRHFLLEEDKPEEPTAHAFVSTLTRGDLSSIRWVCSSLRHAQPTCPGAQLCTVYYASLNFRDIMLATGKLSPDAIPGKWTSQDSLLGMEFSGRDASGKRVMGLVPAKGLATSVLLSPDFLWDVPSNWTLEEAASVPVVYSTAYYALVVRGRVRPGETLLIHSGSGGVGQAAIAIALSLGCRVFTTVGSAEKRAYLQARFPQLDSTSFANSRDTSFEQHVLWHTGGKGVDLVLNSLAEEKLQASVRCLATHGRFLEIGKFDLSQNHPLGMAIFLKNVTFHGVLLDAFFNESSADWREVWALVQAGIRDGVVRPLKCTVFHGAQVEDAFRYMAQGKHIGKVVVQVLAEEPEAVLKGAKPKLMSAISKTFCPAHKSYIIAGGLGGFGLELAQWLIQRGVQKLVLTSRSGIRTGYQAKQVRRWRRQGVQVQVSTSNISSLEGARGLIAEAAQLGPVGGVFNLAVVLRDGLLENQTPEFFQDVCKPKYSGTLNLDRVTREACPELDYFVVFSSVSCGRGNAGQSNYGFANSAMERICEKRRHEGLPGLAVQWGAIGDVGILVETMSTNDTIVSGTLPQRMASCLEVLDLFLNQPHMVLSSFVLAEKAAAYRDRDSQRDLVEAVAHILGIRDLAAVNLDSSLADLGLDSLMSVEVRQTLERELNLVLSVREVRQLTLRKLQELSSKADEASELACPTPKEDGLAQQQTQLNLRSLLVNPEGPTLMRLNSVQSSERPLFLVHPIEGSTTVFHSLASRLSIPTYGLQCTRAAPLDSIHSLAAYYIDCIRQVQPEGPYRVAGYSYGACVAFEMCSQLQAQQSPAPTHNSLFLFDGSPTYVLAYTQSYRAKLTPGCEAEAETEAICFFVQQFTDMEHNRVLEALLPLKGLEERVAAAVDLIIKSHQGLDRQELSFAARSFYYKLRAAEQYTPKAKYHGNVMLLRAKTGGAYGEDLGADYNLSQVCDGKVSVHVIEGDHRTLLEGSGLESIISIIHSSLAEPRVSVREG
# Sequence of Melanin-concentrating hormone receptor 1 (Q99705 whole entry, the tested form may be a part): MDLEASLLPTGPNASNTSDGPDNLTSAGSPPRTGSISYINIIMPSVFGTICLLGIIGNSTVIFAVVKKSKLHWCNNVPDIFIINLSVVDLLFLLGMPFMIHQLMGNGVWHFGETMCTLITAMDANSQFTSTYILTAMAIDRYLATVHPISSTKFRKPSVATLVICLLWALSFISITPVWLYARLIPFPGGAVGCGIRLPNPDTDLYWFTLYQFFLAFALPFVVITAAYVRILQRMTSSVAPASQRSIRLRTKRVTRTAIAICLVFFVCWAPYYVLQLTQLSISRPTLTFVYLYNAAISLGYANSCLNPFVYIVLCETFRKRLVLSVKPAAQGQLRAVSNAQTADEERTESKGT
# Sequence of X-box-binding protein 1 (P17861 whole entry, the tested form may be a part): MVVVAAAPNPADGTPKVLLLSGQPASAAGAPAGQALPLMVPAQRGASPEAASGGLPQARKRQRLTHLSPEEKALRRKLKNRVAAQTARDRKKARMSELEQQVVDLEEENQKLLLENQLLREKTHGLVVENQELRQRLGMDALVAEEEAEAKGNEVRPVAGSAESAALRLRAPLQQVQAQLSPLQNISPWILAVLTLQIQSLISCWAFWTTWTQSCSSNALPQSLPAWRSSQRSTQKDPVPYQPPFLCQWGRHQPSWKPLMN
# Sequence of Acyl-homoserine lactone acylase PvdQ (Q9I194 24-193 limits assumed): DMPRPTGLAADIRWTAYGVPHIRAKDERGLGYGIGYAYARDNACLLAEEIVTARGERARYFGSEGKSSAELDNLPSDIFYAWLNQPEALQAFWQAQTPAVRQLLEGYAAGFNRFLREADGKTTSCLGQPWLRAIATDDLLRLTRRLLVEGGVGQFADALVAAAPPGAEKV
# Sequence of Acyl-homoserine lactone acylase PvdQ (Q9I194 217-762 limits assumed): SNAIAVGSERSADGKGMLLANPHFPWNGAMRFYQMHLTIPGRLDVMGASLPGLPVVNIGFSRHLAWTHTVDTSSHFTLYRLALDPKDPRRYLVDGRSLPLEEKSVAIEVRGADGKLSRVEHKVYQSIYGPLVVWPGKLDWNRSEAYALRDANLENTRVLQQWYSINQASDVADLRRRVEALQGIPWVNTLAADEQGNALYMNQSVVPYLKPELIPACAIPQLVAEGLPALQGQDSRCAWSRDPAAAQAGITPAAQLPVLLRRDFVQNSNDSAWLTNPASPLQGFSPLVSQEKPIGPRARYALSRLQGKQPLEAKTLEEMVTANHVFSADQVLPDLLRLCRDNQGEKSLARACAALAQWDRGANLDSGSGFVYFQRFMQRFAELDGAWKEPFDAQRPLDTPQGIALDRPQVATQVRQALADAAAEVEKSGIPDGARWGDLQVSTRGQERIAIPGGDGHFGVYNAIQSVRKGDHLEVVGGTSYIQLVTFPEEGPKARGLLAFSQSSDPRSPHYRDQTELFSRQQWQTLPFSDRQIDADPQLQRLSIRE
# Sequence of Beta-lactamase (Pseudomonas aeruginosa, UniProt Q79MP6) (Q79MP6 whole entry): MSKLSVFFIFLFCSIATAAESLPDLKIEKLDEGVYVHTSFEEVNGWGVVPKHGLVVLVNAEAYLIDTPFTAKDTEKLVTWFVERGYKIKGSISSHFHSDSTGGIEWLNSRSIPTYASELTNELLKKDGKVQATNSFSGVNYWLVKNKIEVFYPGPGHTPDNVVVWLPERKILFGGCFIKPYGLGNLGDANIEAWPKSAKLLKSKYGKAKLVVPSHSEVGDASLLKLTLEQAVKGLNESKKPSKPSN
# Sequence of Beta-lactamase (Salmonella choleraesuis (strain SC-B67), UniProt Q5J463) (Q5J463 whole entry): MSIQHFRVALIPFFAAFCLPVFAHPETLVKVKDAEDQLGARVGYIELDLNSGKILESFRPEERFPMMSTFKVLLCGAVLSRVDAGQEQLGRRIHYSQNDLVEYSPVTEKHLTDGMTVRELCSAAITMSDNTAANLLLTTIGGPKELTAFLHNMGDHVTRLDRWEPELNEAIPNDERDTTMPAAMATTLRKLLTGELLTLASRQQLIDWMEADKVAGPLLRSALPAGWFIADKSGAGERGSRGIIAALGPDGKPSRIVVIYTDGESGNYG
# Sequence of G-protein coupled receptor 35 (Q9HC97 whole entry): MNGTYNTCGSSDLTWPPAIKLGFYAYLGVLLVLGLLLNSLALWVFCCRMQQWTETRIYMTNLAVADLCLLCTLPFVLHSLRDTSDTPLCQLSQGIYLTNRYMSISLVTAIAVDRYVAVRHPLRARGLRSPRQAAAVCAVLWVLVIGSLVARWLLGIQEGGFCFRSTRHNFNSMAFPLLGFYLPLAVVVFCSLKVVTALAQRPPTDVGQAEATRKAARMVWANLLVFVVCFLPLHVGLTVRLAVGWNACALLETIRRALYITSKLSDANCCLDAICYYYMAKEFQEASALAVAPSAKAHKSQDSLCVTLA
smiles,measurement,setting,value
COCCCNc1c(O)nc2cccc3c2c1-c1ccccc1C3=O,IC50,Beta-lactamase [1],0.89 µM (active)
same,EC50,Insulin-degrading enzyme [2],> 54.7 µM (inactive)
same,EC50,HEK293 [3],> 54.7 µM (inactive)
same,IC50,HEK293 [4],> 89.2 µM (inactive)
same,IC50,Beta-lactamase [5],2.11 µM (active)
same,AC50,[6],1.57 µM (active)
same,AC50,HeLa,66.1 µM (active)
same,EC50,Insulin-degrading enzyme [7],> 54.7 µM (inactive)
same,AC50,ORF 73,0.526 µM (active)
CCc1cc(C(c2cccc(OC)c2)N2CCOCC2)c(NC(=O)c2ccccc2)s1 (stereo not given),EC50,[8],1.88 µM (active)
CCCCN1C(=O)NC(=O)/C(=C(O)\C=C\c2c[nH]c3ccccc23)C1=O,IC50,[9],3.1 µM (active)
same,EC50,[10],6.02 µM (active)
Cc1onc(-c2ccccc2)c1C(=O)NNC(=S)NC(=O)/C=C/c1ccccc1,EC50,[8],5.31 µM (active)
same,EC50,[10],3.32 µM (active)
same,EC50,[11],4.22 µM (active)
CC(C)C(=O)N1CCC(CNC=C2C(=O)N(C3CCCCC3)C(=O)N(C3CCCCC3)C2=O)CC1,Absolute IC50 (XBP1),X-box-binding protein 1,10 µM
O=C(COc1ccc([N+](=O)[O-])cc1)NCCC1=CCCCC1,IC50,Fatty acid synthase [12],10.1 µM (active)
same,IC50,[13],> 14.6 µM (not active)
same,IC50,[14],22.2 µM (not active)
same,IC50,Fatty acid synthase [15],8.16 µM (active)
COC(=O)c1noc(-c2ccc(OC)cc2)n1,AC50,[16],> 100 µM (inactive)
O=C(NC1CCCCCCC1)c1cc([N+](=O)[O-])ccc1Cl,AC50,[16],40.8 µM (active)
same,IC50,Fatty acid synthase [12],7.35 µM (active)
same,IC50,Fatty acid synthase [15],9.4 µM (active)
Clc1ccc(-n2c(SC/C=C/c3ccccc3)nnc2-c2cccnc2)cc1,EC50,[17],46.1 µM (active)
same,IC50,[13],16.9 µM (not active)
same,IC50,[14],8.43 µM (active)
COc1ccc(-c2csc(N(CCCN(C)C)C(=O)c3ccccc3F)n2)cc1,CC50,Vero,> 80 µM (active)
COc1ccc(C(=O)Nc2cc(Cl)ccc2[N+](=O)[O-])cc1,IC50,Hexokinase,> 25 µM (inactive)
Cc1ccc(OCC(=O)N/N=C/c2c[nH]nc2-c2ccc(Cl)c(Cl)c2)cc1,Absolute IC50 (XBP1),X-box-binding protein 1,10 µM
